Experimental data as given in publication PMC7503509, “Polydopamine Linking Substrate for AMPs: Characterisation and Stability on Ti6Al4V” (Materials, 2020).
Read-outs that look alike come from different tables or passages of the source. No end group written: not given here.

How the values were obtained:
[1] = system: Pseudomonas aeruginosa (P. aeruginosa, PAO1); format: cell-based; conditions: PAO1, 18 h
Description: (§1) The minimum inhibition concentration (MIC) is used to determine the lowest concentration of antimicrobial agent needed to inhibit the visible growth of a bacteria strain after overnight incubation. All the bacteria strains were kindly provided by Dr Mark Webber of the Quadram Institute Bioscience (Norwich, UK; Escherichia coli (E. coli, […]), Pseudomonas aeruginosa (P. aeruginosa, PAO1) and Staphylococcus aureus (S. aureus, […]/NCTC8532)). Lysogen broth (LB broth) and agar were purchased from Sigma-Aldrich, Merck Life Science UK Limited, Dorset, UK. Fresh LB agar culture plates were prepared by pouring ≈10 mL of an autoclaved warm mixture of LB broth (2.5%) and bacteriological agar (1.5%) dissolved in dH2O. The agar plate was streaked and incubated overnight at 36 °C. A single bacterial colony was chosen and grown in 5 mL broth overnight under agitation at 36 °C. Subsequently, 50 μL of LB broth was added to wells 2-12 of a 96-well culture plate. AMPs were diluted to a concentration of 256 μg/mL, added to well 1, and diluted two-fold down to column 11. Column 12 was left empty, with no AMPs added. Then, 50 μL of the diluted overnight bacteria culture was added to the wells and incubated at 36 °C for 18 h to allow bacteria to grow. After incubation, the well plates were examined for bacterial growth and the lowest concentration of AMPs where clear liquid was observed was assumed to be the minimum inhibitory concentration. Three measurements for each peptide and against each type of bacteria were performed and the average values were obtained.

[2] = system: Staphylococcus aureus (S. aureus, F77/NCTC8532); format: cell-based; conditions: NCTC8532, 18 h
Description: as §1

[3] = system: Escherichia coli (E. coli, I364); format: cell-based; conditions: I364, 18 h
Description: as §1

[4] = system: E. coli (I364), P. aeruginosa (PAO1), S. aureus (F77); format: cell-based; conditions: 18 h
Description: as §1

[5] = system: E. coli (I364), P. aeruginosa (PAO1), S. aureus (F77); conditions: mean of the literature values for LL-37; cited from earlier work
From the text: Table 3 MIC values for the designed KR12 analogues compared to the LL-37 human cathelicidin. | column: MIC Values (μM) / Geometric Mean

[6] = system: Escherichia coli (E. coli, I364); conditions: comparison value for LL-37; cited from earlier work
From the text: Table 3 MIC values for the designed KR12 analogues compared to the LL-37 human cathelicidin. | column: MIC Values (μM) / E. coli ([…])

[7] = system: Staphylococcus aureus (S. aureus, F77/NCTC8532); conditions: comparison value for LL-37; cited from earlier work
From the text: Table 3 MIC values for the designed KR12 analogues compared to the LL-37 human cathelicidin. | column: MIC Values (μM) / S. aureus ([…])

[8] = system: Pseudomonas aeruginosa (P. aeruginosa, PAO1); conditions: comparison value for LL-37; cited from earlier work
From the text: Table 3 MIC values for the designed KR12 analogues compared to the LL-37 human cathelicidin. | column: MIC Values (μM) / P. aeruginosa (PAO1)

Substance | MIC Values P. aeruginosa (PAO1) [1] | MIC Values S. aureus (F77) [2] | MIC Values E. coli (I364) [3] | MIC Values Geometric Mean [4] | MIC Values Geometric Mean [5] | MIC Values E. coli (I364) [6] | MIC Values S. aureus (F77) [7] | MIC Values P. aeruginosa (PAO1) [8]
KIRVQRIKDFLR [KR12/32] | 4 µM | 32 µM | 4 µM | 13.33 µM |  |  |  | 
KIRVRIKFR [KR12/32-5911] | 4 µM | 2 µM | 4 µM | 3.33 µM |  |  |  | 
KRIVQRIKDFLR [KR12, reference compound] | 2 µM | 8 µM | 2 µM | 4.0 µM |  |  |  | 
KRIVRIKFR [KR12-5911] | 2 µM | 8 µM | 0.5 µM | 3.5 µM |  |  |  | 
LL-37: human cathelicidin, native peptide of KR12 |  |  |  |  | 6.67 µM | 8 µM | 4 µM | 8 µM
